Values quoted from earlier work as cited in patent publication US20030211177A1, “Method and composition for treatment and prevention of alopecia” (priority 2003, published 2003).

Test system: patients' hair (alopecia)
Details: Propecia literature

In the case of `CC(C)(C)NC(=O)[C@H]1CC[C@H]2[C@@H]3CC[C@H]4NC(=O)C=C[C@]4(C)[C@H]3CC[C@]12C` [Propecia ®, finasteride], the “Excellent Improvement (percent of subjects)” value is given as 0%, the “Moderate Improvement (percent of subjects)” value is given as 4% and the “No Improvement (percent of subjects)” value is given as 62%. For the same compound, the “Slight Improvement (percent of subjects)” value was 34%.
